Read-outs that look alike come from different tables or passages of the source.
Columns and labels:
[1] = test system: dorsal root ganglion (DRG) sensory neurons; experiment: Neurite outgrowth in dorsal root ganglion (DRG) explants; type: cell-based, mice
Protocol: To perform these experiments, about 10 dorsal root ganglia (DRGs) were excised under sterile conditions and transferred to 0.25% Type IV collagenase (Sigma-Aldrich-Merck) in Dulbecco's Modified Eagle Medium (DMEM) at 37° C. for 45 min, followed by a 20-min incubation with 0.025% trypsin in DMEM, to digest the associated connective tissue surrounding the neurons. After plating the ganglia onto collagen (50 μg/ml)/laminin mixture (5 μg/ml)-coated tissue culture wells for 24 h, DRG neurons were cultured for additional 1-7 days in fresh Neurobasal A/B27 containing either 50 ng/ml NGF (positive control), blank medium (DMSO 1%) control and HU-MCA-13. The cultures were photographed; thereafter the ganglia were immune-stained for neuronal tubulin and again photographed using a fluorescent microscope. Image analysis was performed by a researcher blinded to the experimental conditions. Neurite outgrowth distance measured in micrometers, was quantified as for PC12 cultures.

[2] = biological target: T1, cGMP-inhibited cyclic nucleotide phosphodiesterase 3A (PDE3A) (Homo sapiens, UniProt Q14432); experiment: SAFETYscan PDE3A Enzymatic; type: biochemical; details: Inhibitor mode; 10 μM HU-MCA-13; read-out: Maximal Response
T1 construct: DiscoverX (SAFETYscan contract panel)

[3] = biological target: Voltage-gated L-type calcium channel (CAV1.2) (Homo sapiens, UniProt Q13936); experiment: in vitro; set-up: dose or concentration left out as unconfirmed
PC12 cells = experiment: PC12 cell neurotropic assay (neurite outgrowth); type: cell-based, rat; details: 10 μM
Protocol: PC12 cells were grown in T-200 flasks in high glucose (4.5 gr/L) DMEM medium supplemented with 7% FCS, 7% horse serum and 1% penicillin and streptomycin. Cells were incubated at 37° C. in a humidified incubator containing 6% CO2. All experiments were carried out in a clean room, according to ISO7 requirements (10,000 particles/m^3).
Tissue culture Falcon plates were coated with 200 μg/ml collagen type 1 and placed under UV light for 30 minutes for sterilization. Thereafter, one ml of PC12 cell suspension (5000 cells/well) was applied in 12 or 24 well plate, respectively. The cultures were grown in the incubator two days before exposure to investigated compound.
This experimental procedure contained two controls. The first consisted of untreated cells (negative control), representing the random effect: “noise signal”—the ability of cells to spontaneously grow neurite outgrowth which in seven days are of a length less than two-fold cell diameter. Also, negative controls consisted of cultures treated with 1% DMSO, solvent used to solubilize all compounds. The positive control consisted of cells treated with 50 ng/ml NGF, indicating maximal neurite outgrowth that can be achieved in this model. The experimental group consisted of PC12 cells treated with synthetic compounds. In each experiment, after two and seven days, six cultures were evaluated for neurotropic effect. These consecutive observations allow measurement of the progress of neurite outgrowth elongation and the percentage of cells with neurites.^31
In order to assess neurotropic effect, the neurite outgrowth length in each culture was quantified. For this purpose, each culture was placed under an inverted microscope and photographed by the attached camera. Each well was photographed at three to five representative areas. After acquiring the photos, they were analyzed by ImageJ, NIH software. The neurite outgrowth was estimated by fractal dimension (Df), a statistical parameter that describes the fractional space (area and length) filled by neurite outgrowth. Df ranged from 0 to 1.20. This method estimates the amount of picsel covered by neurites/cells compared to empty space per square field, and therefore plotting log (number of square boxes) vs. log (size in pixels) relationship generates a linear curve with Df representing the slope of the curve. Every photograph that was taken, was opened in a Photoshop software and a new layer was generated on it. Using a 5-pixel wide digital pencil tool, all the outgrowths were marked and the layer with the markers (outgrowth network) was saved in a 0-255 gray scale as described in FIG. 2. Then, the saved layer was opened by ImageJ NIH software. The software “skeletonized” the layer, measured the length and complexity of every outgrowth in a fractal box count and calculated the fractional dimension parameter (Df).^32
Each experiment was performed in duplicates and repeated three to four times (n=6-8). By using SPSS software, one way ANOVA was performed for the fractional dimension of each compound, in order to evaluate the neurotropic effect. In case of significance, Bonferroni post-hoc analysis was performed. The results were considered significant when p<0.05.

[4] = biological target: Opioid Receptor Mu 1 (OPRM1) (Homo sapiens, UniProt P35372); experiment: cell-based; details: 10 μM HU-MCA-13, read-out: Maximal Response
Sequence of Opioid Receptor Mu 1 (OPRM1) (P35372 whole entry): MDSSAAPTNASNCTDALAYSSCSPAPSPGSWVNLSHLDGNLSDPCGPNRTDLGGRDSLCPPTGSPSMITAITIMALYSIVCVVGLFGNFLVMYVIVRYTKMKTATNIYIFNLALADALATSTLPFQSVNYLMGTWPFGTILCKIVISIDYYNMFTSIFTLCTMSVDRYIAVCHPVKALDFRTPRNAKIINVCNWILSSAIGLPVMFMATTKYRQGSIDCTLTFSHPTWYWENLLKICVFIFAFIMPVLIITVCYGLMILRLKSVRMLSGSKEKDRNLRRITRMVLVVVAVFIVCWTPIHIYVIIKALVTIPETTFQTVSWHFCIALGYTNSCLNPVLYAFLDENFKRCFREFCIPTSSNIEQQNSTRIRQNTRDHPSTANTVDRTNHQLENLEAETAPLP

[5] = test system: Gamma-aminobutyric acid Receptor A (GABAA); type: cell-based; details: 10 μM HU-MCA-13
[6] = biological target: Histamine Receptor H2 (HRH2) (Homo sapiens, UniProt P25021); experiment: SAFETYscan HRH2 cAMP; type: cell-based; details: 10 μM HU-MCA-13; for Emax: read-out: Maximal Response
Sequence of Histamine Receptor H2 (HRH2) (P25021 whole entry): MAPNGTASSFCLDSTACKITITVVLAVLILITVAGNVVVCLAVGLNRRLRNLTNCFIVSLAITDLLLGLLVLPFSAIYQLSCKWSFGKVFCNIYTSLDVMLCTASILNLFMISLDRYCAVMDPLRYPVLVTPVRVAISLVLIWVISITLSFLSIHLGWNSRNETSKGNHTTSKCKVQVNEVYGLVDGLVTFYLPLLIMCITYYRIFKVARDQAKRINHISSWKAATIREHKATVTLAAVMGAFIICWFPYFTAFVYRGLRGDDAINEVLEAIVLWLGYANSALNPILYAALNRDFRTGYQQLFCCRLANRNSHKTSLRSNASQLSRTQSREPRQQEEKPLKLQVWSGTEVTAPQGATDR

[7] = biological target: T2, Rho Associated Coiled-Coil Containing Protein Kinase 1 (serine-threonine kinase) (ROCK1) (Homo sapiens, UniProt Q13464); experiment: SAFETYscan ROCK1 kinase Binding; details: Inhibitor mode, 10 μM HU-MCA-13, read-out: Maximal Response
T2 construct: DiscoverX (KINOMEscan)
T2 sequence (Q13464 whole entry): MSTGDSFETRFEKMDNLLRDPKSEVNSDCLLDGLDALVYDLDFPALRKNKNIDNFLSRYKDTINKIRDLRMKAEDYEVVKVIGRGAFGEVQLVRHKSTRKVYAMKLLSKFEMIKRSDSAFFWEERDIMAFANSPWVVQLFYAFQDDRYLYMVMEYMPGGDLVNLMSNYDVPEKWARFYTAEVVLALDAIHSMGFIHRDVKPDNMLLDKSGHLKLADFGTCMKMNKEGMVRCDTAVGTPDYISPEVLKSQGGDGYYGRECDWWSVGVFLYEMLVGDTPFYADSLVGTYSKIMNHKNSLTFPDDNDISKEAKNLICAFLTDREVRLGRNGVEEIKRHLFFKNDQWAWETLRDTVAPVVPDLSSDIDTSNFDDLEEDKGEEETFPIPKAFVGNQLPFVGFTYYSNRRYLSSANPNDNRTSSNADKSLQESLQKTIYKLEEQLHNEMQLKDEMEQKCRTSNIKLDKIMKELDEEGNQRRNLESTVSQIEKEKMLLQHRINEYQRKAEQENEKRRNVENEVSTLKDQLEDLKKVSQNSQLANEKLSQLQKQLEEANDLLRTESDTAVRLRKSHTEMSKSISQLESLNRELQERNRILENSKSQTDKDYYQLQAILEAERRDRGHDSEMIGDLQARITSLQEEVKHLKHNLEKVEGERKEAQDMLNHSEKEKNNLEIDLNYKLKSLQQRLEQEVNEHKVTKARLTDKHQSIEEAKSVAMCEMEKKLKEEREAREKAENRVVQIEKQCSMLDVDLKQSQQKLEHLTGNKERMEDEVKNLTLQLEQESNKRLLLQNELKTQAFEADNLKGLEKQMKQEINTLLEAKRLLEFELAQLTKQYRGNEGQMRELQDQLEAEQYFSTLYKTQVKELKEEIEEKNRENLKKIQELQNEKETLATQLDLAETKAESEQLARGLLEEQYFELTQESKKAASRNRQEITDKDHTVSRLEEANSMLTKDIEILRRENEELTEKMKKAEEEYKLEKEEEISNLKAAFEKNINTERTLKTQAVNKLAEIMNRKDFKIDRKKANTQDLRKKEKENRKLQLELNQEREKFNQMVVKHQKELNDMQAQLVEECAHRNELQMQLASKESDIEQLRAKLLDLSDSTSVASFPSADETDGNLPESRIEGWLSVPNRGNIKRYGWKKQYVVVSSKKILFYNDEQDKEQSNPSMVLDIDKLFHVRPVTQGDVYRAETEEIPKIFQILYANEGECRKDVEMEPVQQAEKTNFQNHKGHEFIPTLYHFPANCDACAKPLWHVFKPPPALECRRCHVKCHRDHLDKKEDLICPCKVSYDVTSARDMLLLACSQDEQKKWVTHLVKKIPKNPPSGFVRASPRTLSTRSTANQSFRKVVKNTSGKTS

[8] = biological target: Adrenergic Receptor β2 (ADRB2) (Homo sapiens, UniProt P07550); experiment: SAFETYscan ADRB2 cAMP; type: cell-based; details: 10 μM HU-MCA-13, read-out: Maximal Response
Sequence of Adrenergic Receptor β2 (ADRB2) (P07550 whole entry): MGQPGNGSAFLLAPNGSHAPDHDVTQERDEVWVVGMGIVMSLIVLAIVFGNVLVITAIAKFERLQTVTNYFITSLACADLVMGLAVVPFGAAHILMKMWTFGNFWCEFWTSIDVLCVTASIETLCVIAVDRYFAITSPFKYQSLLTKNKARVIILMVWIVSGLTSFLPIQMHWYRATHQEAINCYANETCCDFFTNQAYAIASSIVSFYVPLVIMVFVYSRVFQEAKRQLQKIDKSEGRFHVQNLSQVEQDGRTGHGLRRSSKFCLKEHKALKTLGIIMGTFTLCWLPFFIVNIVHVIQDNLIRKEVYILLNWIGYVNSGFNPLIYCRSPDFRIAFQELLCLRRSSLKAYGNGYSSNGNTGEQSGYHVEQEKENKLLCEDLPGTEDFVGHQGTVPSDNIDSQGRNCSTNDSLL

[9] = biological target: T3, Vascular endothelial growth factor receptor 2 (KDR tyrosine kinase) (VEGFR2) (Homo sapiens, UniProt P35968); experiment: SAFETYscan VEGFR2 kinase Binding; details: Inhibitor mode, 10 μM HU-MCA-13, read-out: Maximal Response
T3 construct: DiscoverX (KINOMEscan)

[10] = biological target: Arginine Vasopressin Receptor 1A (AVPR1A) (Homo sapiens, UniProt P37288); experiment: SAFETYscan AVPR1A Calcium Flux; type: cell-based; details: 10 μM HU-MCA-13, read-out: Maximal Response
Sequence of Arginine Vasopressin Receptor 1A (AVPR1A) (P37288 whole entry): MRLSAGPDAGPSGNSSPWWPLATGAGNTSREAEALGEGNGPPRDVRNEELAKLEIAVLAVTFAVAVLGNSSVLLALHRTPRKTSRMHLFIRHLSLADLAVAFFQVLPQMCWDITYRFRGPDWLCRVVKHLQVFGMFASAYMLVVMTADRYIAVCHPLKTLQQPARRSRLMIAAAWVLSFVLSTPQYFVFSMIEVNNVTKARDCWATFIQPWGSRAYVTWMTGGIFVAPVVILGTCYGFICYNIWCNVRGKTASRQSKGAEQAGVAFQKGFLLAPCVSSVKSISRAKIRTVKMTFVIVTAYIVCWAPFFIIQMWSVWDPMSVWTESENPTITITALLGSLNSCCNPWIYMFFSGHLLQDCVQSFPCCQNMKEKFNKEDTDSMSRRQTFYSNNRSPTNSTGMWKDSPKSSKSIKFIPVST

[11] = biological target: T4, Nuclear Hormone Androgen Receptor (AR) (Homo sapiens, UniProt P10275); experiment: SAFETYscan AR Nuclear Hormone Receptor Translocation; type: cell-based; details: 10 μM HU-MCA-13
T4 construct: DiscoverX (SAFETYscan contract panel)
T4 sequence (P10275 whole entry): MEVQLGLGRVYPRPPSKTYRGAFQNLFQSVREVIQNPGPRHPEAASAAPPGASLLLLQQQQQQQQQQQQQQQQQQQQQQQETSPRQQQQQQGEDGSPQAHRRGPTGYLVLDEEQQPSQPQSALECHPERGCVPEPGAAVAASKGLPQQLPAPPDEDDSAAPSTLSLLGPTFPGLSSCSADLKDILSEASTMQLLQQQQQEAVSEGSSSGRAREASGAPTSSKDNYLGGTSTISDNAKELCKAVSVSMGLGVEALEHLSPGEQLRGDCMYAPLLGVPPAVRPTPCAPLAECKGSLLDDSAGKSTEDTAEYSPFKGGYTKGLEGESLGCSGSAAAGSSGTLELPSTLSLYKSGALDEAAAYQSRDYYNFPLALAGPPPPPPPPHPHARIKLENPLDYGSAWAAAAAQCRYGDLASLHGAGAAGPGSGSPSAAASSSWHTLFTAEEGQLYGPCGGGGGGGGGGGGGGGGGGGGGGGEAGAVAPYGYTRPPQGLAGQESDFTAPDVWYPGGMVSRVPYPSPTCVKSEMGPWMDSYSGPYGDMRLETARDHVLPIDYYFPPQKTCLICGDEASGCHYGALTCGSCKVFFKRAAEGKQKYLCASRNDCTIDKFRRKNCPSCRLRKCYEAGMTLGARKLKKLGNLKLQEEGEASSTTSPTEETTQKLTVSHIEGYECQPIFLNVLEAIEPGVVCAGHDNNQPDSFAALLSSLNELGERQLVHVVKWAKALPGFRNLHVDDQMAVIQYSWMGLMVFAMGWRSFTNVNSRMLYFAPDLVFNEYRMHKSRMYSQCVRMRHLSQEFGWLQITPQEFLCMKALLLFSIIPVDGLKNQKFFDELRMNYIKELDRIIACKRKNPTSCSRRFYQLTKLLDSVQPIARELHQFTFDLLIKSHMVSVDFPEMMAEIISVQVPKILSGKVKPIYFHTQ

[12] = biological target: 5-Hydroxytryptamine (Serotonin) Receptor 2A (HTR2A) (Homo sapiens, UniProt P28223); experiment: SAFETYscan HTR2A Calcium Flux; type: cell-based; details: 10 μM HU-MCA-13, read-out: Maximal Response
Sequence of 5-Hydroxytryptamine (Serotonin) Receptor 2A (HTR2A) (P28223 whole entry): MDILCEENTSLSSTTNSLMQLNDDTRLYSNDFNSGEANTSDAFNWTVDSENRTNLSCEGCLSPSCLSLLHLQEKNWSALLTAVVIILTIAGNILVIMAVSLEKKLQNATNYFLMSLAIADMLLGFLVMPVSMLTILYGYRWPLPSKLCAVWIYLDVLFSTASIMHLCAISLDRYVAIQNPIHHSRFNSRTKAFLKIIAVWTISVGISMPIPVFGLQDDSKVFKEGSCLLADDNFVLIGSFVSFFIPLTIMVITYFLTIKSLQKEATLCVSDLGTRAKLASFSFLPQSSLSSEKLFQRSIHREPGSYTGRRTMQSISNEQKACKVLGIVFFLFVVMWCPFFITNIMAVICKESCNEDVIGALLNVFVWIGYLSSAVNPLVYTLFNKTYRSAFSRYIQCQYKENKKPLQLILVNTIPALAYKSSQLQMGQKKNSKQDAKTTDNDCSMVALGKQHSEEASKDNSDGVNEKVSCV

SMILES: C=CCC1CCC[C@@H](CCC(=O)O)C1=C (stereo partly drawn) [Compound 13]
- neurite outgrowth, neurotropic effect (in words) ([1]; HU-MCA-13 5 μM, 5 days): strong neurite outgrowth, neurotropic effect like NGF
- maturity of neurites (cytoskeletal-tubulin protein staining) ([1]; HU-MCA-13 compared with NGF-treated ganglia): less mature than in NGF-treated ganglia
- Emax [2]: 3.21%
- Emax [3]: 3.82%
- Neurotropic effect (mean ± SE) Seven Days Df (PC12 cells; PC12 cells, seven days of treatment, Df = fractal dimension of neurite outgrowth): 0.45 ± 0.01
- Neurotropic effect (mean ± SE) Two Days Df (PC12 cells; PC12 cells, two days of treatment, Df = fractal dimension of neurite outgrowth): 0.39 ± 0.01
- Neurotropic effect Seven Days NGF (%) (PC12 cells; seven days, relative to NGF 50 ng/ml): 97.8%
- Neurotropic effect Two Days NGF (%) (PC12 cells; two days, relative to NGF 50 ng/ml): 84.8%
- neurotropic activity (in words) (PC12 cells; after seven days of treatment): significant neurotropic activity
- inducing fast neurite outgrowth (in words) (PC12 cells; after two days of treatment): most active
- Emax ([4]; OPRM1, Agonist mode): 9.31%
- Emax ([4]; OPRM1, Antagonist mode): 0.38%
- Maximal Response ([5]; Blocker mode): 7.74%
- Maximal Response ([5]; Opener mode): 3.68%
- Emax ([6]; Agonist mode): 1.78%
- Maximal Response ([6]; Antagonist mode): 26.94%
- Emax ([6]; Antagonist mode): 26.9%
- Emax [7]: 21.6%
- Emax ([8]; Agonist mode): 1.29%
- Emax ([8]; Antagonist mode): 8.23%
- Emax [9]: 21.7%
- Emax ([10]; Agonist mode): 0.29%
- Emax ([10]; Antagonist mode): 0%
- Emax ([11]; Antagonist mode, read-out: Maximal Response): 5.27%
- Emax ([11]; read-out: Maximal Response, Agonist mode): 0%
- Emax ([12]; Agonist mode): 1.13%
- Emax ([12]; Antagonist mode): 0%
